Source: ChEMBL document CHEMBL3301361, “Experimental in vitro DMPK and physicochemical data on a set of publicly disclosed compounds”
In brackets after ≈: the same amount, converted by molar mass.

Assays:
in vitro [1] = settings: human
physchem [2] = settings: octan-1-ol/water
in vitro [3] = settings: SD, HW or BN, rat, plasma
in vitro [4] = settings: hepatocytes
physchem [5] = settings: pH 7.4 buffer
in vitro [6] = settings: human, plasma, PPB

Row | Compound | microsomal CLint (in vitro [1]; microsomes) [µL/min/mg] | logD (physchem [2]; pH 7.4, LogD7.4) | fraction unbound at 5 h (in vitro [3]) | hepatocyte CLint (in vitro [4]) [µL/min/1e6 cells] | solubility thermodynamic (physchem [5]) [µM] | fraction unbound at 5 h (in vitro [6]) | microsomal CLint (in vitro [1]; liver microsomes) [µL/min/mg] | logD (physchem [2]; pH 7.4)
1 | Cc1ccc(C(=O)NC2CC2)cc1-c1ccc(C(=O)NCC2CC2)nc1 | < 3 | 3.36 | 0.089 | 21 | – | – | – | –
2 | C[C@@H]1C[C@H]2[C@@H]3CCC4=CC(=O)C=C[C@]4(C)[C@@]3(F)[C@@H](O)C[C@]2(C)[C@@]1(O)C(=O)CO [DEXAMETHASONE] | – | 1.87 | 0.126 | 31 | 141 (≈ 55.5 µg/mL) | 0.285 | – | –
3 | COc1ccnc(CCc2nc3ncccc3[nH]2)c1 | – | 1.69 | 0.309 | 18.9 | – | – | < 3 | –
4 | COc1ccccc1CN1C(=O)c2ccccc2C1C(=O)NC1CCC(C)CC1 (configuration not stated) | – | – | 0.0968 | > 150 | – | – | > 150 | 3.74
5 | CC(C)(CCCCCOCCc1ccccc1)NCCc1ccc(O)c2nc(O)sc12 | 48.7 | 2.92 | 0.0229 | 93 | – | – | – | –
6 | Cc1ccc(S(=O)(=O)Nc2c(C(=O)NC(C)C)c(C)nn2-c2ccccc2)cc1 | – | – | 0.051 | 51 | – | – | 12 | –
7 | Cc1nn(-c2ccccc2)c(NS(=O)(=O)c2cccc(CN3CCOCC3)c2)c1C(=O)N[C@@H](C)C(C)(C)C | – | – | 0.16 | 10 | – | – | 9 | –
8 | N#C[C@]1(NC(=O)[C@@H](N)Cc2cccs2)C[C@H]1c1ccccc1 | – | 1.5 | 0.294 | 136 | – | – | 41 | –
9 | CN(C)C(C)(C(=O)OC1CC[N+](C)(C)CC1)c1ccccc1 (configuration not stated) | < 3 | – | 0.454 | 16 | – | – | – | –
10 | Cc1cccc(CN2CCC3(CC2)CCN(C(=O)c2ccccc2)CC3)c1 | – | – | 0.46 | 10.2 | – | – | 13.5 | –
11 | O=C(CC12CC3CC(CC(C3)C1)C2)Nc1cccc2c(=O)n(C(CO)CO)ccc12 | – | 2.62 | 0.117 | 19 | – | – | 42 | –
12 | O=C(c1ccccc1)N1CCC2(CCN(Cc3cccc(Cl)c3)CC2)CC1 | 5 | – | 0.166 | < 3 | – | – | – | –
13 | Cc1cn([C@H]2CCCN([C@@H](CC(C)C)c3ccc(C(=O)O)c(Oc4cccc(Cl)c4)c3)C2)c(=O)[nH]c1=O | – | 0.93 | 0.016 | 9.55 | – | 0.0111 | – | –
14 | COc1cccc2sc(NC(=O)c3ccccc3)nc12 | – | – | 0.0101 | 16 | – | – | 74 | 3.96
15 | Cc1nocc1C(=O)Nc1ccc(-c2ccccc2OC(F)(F)F)c(N)n1 | – | 3.7 | 0.0366 | 74.1 | – | – | < 3 | –
16 | O=C(Nc1nc2ccccc2[nH]1)c1ccccc1 | – | – | 0.126 | > 150 | – | – | 64 | –
17 | CCC(CC)NC(=O)c1cnn(-c2ccccc2)c1NS(=O)(=O)c1ccc(C)cc1 | – | 0.79 | 0.0234 | 47.9 | – | – | 54.5 | –
18 | Cc1nc(-c2ccc(OCC(C)C)c(C#N)c2)sc1C(=O)O [FEBUXOSTAT] | < 3 | 0.94 | 0.0052 | 12.7 | – | – | – | –
19 | Cc1ccc(S(=O)(=O)Nc2c(C(=O)N[C@@H](C)C(C)(C)C)c(C)nn2C2CCS(=O)(=O)CC2)cc1 | < 3 | 0.25 | 0.258 | 4 | – | – | – | –
20 | O=C(NC1CC1)c1cn(-c2cccc(C#Cc3cccnc3)c2)c2ncccc2c1=O | 7 | – | 0.0082 | 29 | – | – | – | –
21 | CC(C(=O)OC1CC[N+](C)(C)CC1)(c1ccccc1)N1CCC(F)(F)CC1 (configuration not stated) | 41 | – | 0.624 | 38 | – | – | – | –
